Data: ChEMBL document CHEMBL1201862, “PubChem BioAssay data set” (2004)
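These data come from cells grown in 96-well plates and exposed to compound for 48 hours at five concentrations. Here, GI50 denotes the concentration required for 50% inhibition of growth.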 Calls of active or inactive are those of the source. Rule as the data show it: active = GI50 up to about 1.1 µM and inactive = higher.

Experiments:
Test in all cases: inhibition of tumour cell growth, NCI panel, 48 h
NCI/ADR-RES = system: NCI/ADR-RES
T47D = system: T47D
MDA-N = system: MDA-N
HOP-18 = system: HOP-18
DLD-1 = system: DLD-1
LXFL 529 = system: LXFL 529
ACHN = system: ACHN
RXF 631 = system: RXF 631

SMILES	GI50 (NCI/ADR-RES)	GI50 (T47D)	GI50 (MDA-N)	GI50 (HOP-18)	GI50 (DLD-1)	GI50 (LXFL 529)	GI50 (ACHN)	GI50 (RXF 631)
SC1=Nc2ccccc2-c2nc(-c3ccccc3)cc(-c3ccc(Br)cc3)c2C1	1.56 µM (inactive)	1.48 µM (inactive)	2.51 µM (inactive)					
C[C@@H]1CC[C@H]2[C@H]1[C@H]1[C@@H](CC[C@]2(C)N=C=S)C1(C)C	21.7 µM (inactive)	45.5 µM (inactive)	1.96 µM (inactive)					
N#C[C@H](OC1OC(COC2OC(CO)C(O)C(O)C2O)C(O)C(O)C1O)c1ccccc1 (stereo not given in full)	> 250 µM (inactive)			> 250 µM (inactive)	> 250 µM (inactive)			
CCCCCCCCCCCCCC(=O)OC1C(O)C(CO)OC(OC)C1NC(=O)N(CCCl)N=O (stereo not given)				> 100 µM (inactive)	> 100 µM (inactive)	> 100 µM (inactive)	41.4 µM (inactive)	
Cc1ccc(NC(=O)OCC(COc2ccc(Cl)cc2)OC(=O)Nc2ccc(C)cc2)cc1 (stereo not given)				> 100 µM (inactive)	30.5 µM (inactive)	23.4 µM (inactive)	20.7 µM (inactive)	11.5 µM (inactive)
N#Cc1ccc(C2Oc3ccc(Cl)cc3C=C2[N+](=O)[O-])cc1 (stereo not given)		0.34 µM (active)	1.53 µM (inactive)				1.67 µM (inactive)	
O=C1CCC23CC(C=CC=C12)n1c(=O)n(-c2ccccc2)c(=O)n13 (stereo not given)	38.5 µM (inactive)			> 100 µM (inactive)	66.2 µM (inactive)			
Cc1cc2c(cc1C)[n+]([O-])c(C#N)c(Cl)[n+]2[O-]	15.8 µM (inactive)		17.5 µM (inactive)				10.5 µM (inactive)	
CC(C)=CCC/C(C)=C/C=C/C(C)=C/C1C[C@@]2(C(O)O1)[C@H](CCCO)/C(=C(/C)C=O)CC[C@]2(C)O (stereo not given in full)				19.1 µM (inactive)	16.4 µM (inactive)		11.6 µM (inactive)	
